The results in this text go back to patent US4551477A, “Esters of alkoxy-acylderivatives of carnitine and pharmaceutical compositions containing same” (Sigma-Tau Industrie Farmaceutiche Riunite S.P.A., priority 1974, dated 1985).

Data set [1] has as its system mice. The experiment in a line: Adrenaline-antagonizing effect in mice. The format is in vivo, male Albino Swiss mice. Particulars: Mus musculus, ip, 30 min before adrenaline, mortality checked for 36 hours, read-out: Antiadrenaline activity, % mortality reduction; for responders at 300 mg/kg: dose 300 mg kg^-1 i.p.; for responders at 100 mg/kg: dose 100 mg kg^-1 i.p.; for responders at 50 mg/kg: dose 50 mg kg^-1 i.p.; for responders at 70 mg/kg: dose 70 mg kg^-1 i.p. Here is the method:
(d) Adrenaline-antagonizing effect
Groups of ten male Albino Swiss mice, weighing 12-22 g, were intraperitoneally administered either with the esters of the present invention or with saline (control) and, after 30 minutes, with adrenaline (treated) at a dose capable of bringing about death to 100% of the control animals due to ventricular fibrillation and cardiac lesions ensuing from increase in frequency, pressure and oxygen uptake from the myocardium.
Mortality was checked for 36 hours and the effect of the compounds expressed as percentage of surviving animals, is shown in the Table.

Data set [2] has as its system mice. The experiment in a line: Antiarrhythmic (antifibrillatory) effect, aconitine-induced arrhythmia in mice. The format is in vivo. The settings on record: Mus musculus, iv, read-out: Antifibrillatory activity, % reduction. Here is the method: (c) Antiarrhythmic effect
In order to evaluate the antiarrhythmic activity of the carnitine derivatives of this invention studied with in vivo tests in addition to and in comparison with the currently employed in vitro tests, the method disclosed by Nwangwu et al. (Arch. Int. Pharmacodyn., 1977, 229, 219) was used.
According to this method an aconitine solution is injected into the caudal vein of mice and the onset time of arrhythmia and tachycardia after 2 to 60 minutes from administration of the compounds under examination is recorded.
The antiarrhythmic activity calculated from the increase in the latency time of the onset of the arrhythmias of the treated animals in comparison with the controls, is illustrated in the Table.

Data set [3] is described as follows: Acute toxicity (LD50) in mice. Particulars: mouse, in vivo, ip. From the text: (a) Acute toxicity (LD50)
Acute toxicity was investigated by using the method disclosed by Weil C. S. in "Tables for convenient calculation of median-effective dose (LD50 or ED50) and instructions in their use", Biometrics, 249-253, 1952.
The tolerance of the compounds under examination was investigated in mice after administration by the intraperitoneal or oral route. […] (see the Table).

A further data set has as its system rabbit isolated heart. Put plainly: Inotropic effect on rabbit isolated heart (Langendorff) after anoxia. Particulars: Oryctolagus cuniculus, 10 min, dose 10^-5 gl^-1, 10 minutes after interruption of the anoxic period, increase against controls. The method, then: Rabbit hearts isolated by the Langendorff method were perfused with oxygenized Ringer solution at 38.2° C. The isometric contractions, electrogardiogram and coronary flow were recorded using a "Battaglia-Rangoni" polygraph. By removing the oxygen from the perfusion fluid, metabolic damage was induced in the cardiac muscle, up to an 80% reduction in the cardiac contractile force.
Under these conditions of prolonged anoxia the aerobic glycolysis of the myocardium is slowed down, accompanied by the storage of acid catabolites due to both the accumulation of pyruvic acid and its conversion to lactic acid which cannot be utilized because of the depression of pyridine enzymes, such as LDH (lactodehydrogenase). This has repercussions on the anaerobic glycolysis affecting an ever increasing number of enzymes, accompanied by a progressive and increasingly critical exhaustion of the myocardium. Thus a whole series of cardiac muscle fatigue levels occurs which can be observed by the behavior of the examined parameters, namely the contractile force, coronary flow, heart rate and cardiac rhythm. As soon as the contractile force was reduced by 80%, the perfusion fluid was once again oxygenized either without adding other compounds (controls) or with the addition of the compounds under examination.
In the Table there are shown the percentage value of increase against the controls.

As for `CCOC(C)C(=O)OC(CC(=O)OC(C)C)C[N+](C)(C)C` (centres unmarked) [R = 2-ethoxypropionyl; R' = isopropyl], the responders at 300 mg/kg with mice [1] came out at 50%. Also, the inhibition in vivo at 50 mg/kg with mice [2] stood at 70%. This compound also yielded a 50% lethal dose (LD50) in data set [3] of 1200 mg/kg. In the data set with rabbit isolated heart, this compound displayed an activation at 0.01 µg/mL of 50%.
Take `COC(C)C(=O)OC(CC(=O)OC(C)C)C[N+](C)(C)C` (centres unmarked) [R = 2-methoxypropionyl; R' = isopropyl, 2-methoxy propionyl carnitine isopropyl ester]: the responders at 100 mg/kg with mice [1] came out at 58%. In the data set on mice [2], the inhibition in vivo at 50 mg/kg came to 68%. Further, the LD50 in data set [3] turned out to be 850 mg/kg. In the data set with rabbit isolated heart, this compound returned an activation at 0.01 µg/mL of 70%.
As to `CCCCOC(=O)CC(C[N+](C)(C)C)OC(=O)COCC` (centres unmarked) [R = ethoxyacetyl; R' = butyl], in the data set on mice [1], the responders at 100 mg/kg came to 75%. The inhibition in vivo at 40 mg/kg in the data set with mice [2] turned out to be 75%. The compound further showed a 50% lethal dose (LD50) in data set [3] of 600 mg/kg. Further, in the data set with rabbit isolated heart, the activation at 0.01 µg/mL turned out to be 58%.
In the case of `CCOCC(=O)OC(CC(=O)OCC)C[N+](C)(C)C` (centres unmarked) [R = ethoxyacetyl; R' = ethyl], the responders at 50 mg/kg with mice [1] is 50%. The inhibition in vivo at 35 mg/kg in the data set on mice [2] stood at 65%. Moreover, the median lethal dose (LD50) in data set [3] is 600 mg/kg. In the data set on rabbit isolated heart, the activation at 0.01 µg/mL stood at 68%.
In the case of `CCOCC(=O)OC(CC(=O)OCC(C)C)C[N+](C)(C)C` (centres unmarked) [R = ethoxyacetyl; R' = isobutyl, ethoxyacetyl carnitine isobutyl ester], the responders at 70 mg/kg in the data set with mice [1] was found to be 50%. In addition, the inhibition in vivo at 10 mg/kg with mice [2] was 70%. This compound showed a 50% lethal dose (LD50) in data set [3] of 750 mg/kg. In the data set with rabbit isolated heart, the activation at 0.01 µg/mL worked out at 70%.
On to `CCOCC(=O)OC(CC(=O)OC(C)C)C[N+](C)(C)C` (centres unmarked) [R = ethoxyacetyl; R' = isopropyl], for which the responders at 100 mg/kg with mice [1] amounted to 60%. Also, in the data set on mice [2], the inhibition in vivo at 50 mg/kg was determined as 70%. This compound returned an LD50 in data set [3] of 700 mg/kg. Further, the activation at 0.01 µg/mL with rabbit isolated heart turned out to be 72%.
`CCOCC(=O)OC(CC(=O)OC)C[N+](C)(C)C` (centres unmarked) [R = ethoxyacetyl; R' = methyl]: the responders at 300 mg/kg in the data set with mice [1] is 75%. For the same compound, in the data set on mice [2], the inhibition in vivo at 150 mg/kg turned out to be 90%. The compound also showed an LD50 in data set [3] of 1100 mg/kg. This compound also registered an activation at 0.01 µg/mL in the data set with rabbit isolated heart of 55%.
As to `CCCOC(=O)CC(C[N+](C)(C)C)OC(=O)COCC` (centres unmarked) [R = ethoxyacetyl; R' = propyl], in the data set on mice [1], the responders at 100 mg/kg is 75%. Besides, in the data set on mice [2], the inhibition in vivo at 50 mg/kg is 75%. The 50% lethal dose (LD50) in data set [3] worked out at 620 mg/kg. Moreover, in the data set on rabbit isolated heart, the activation at 0.01 µg/mL came out at 49%.
On to `CCCCOC(=O)CC(C[N+](C)(C)C)OC(=O)COC` (centres unmarked) [R = methoxyacetyl; R' = butyl], for which, in the data set on mice [1], the responders at 100 mg/kg is 70%. In addition, the inhibition in vivo at 40 mg/kg with mice [2] is 75%. In data set [3], the LD50 came to 550 mg/kg. Also, the activation at 0.01 µg/mL in the data set on rabbit isolated heart worked out at 55%.
Turning to `CCOC(=O)CC(C[N+](C)(C)C)OC(=O)COC` (centres unmarked) [R = methoxyacetyl; R' = ethyl], the responders at 70 mg/kg in the data set with mice [1] was 70%. Further, the inhibition in vivo at 50 mg/kg in the data set on mice [2] came to 70%. In data set [3], this compound showed an LD50 of 550 mg/kg. This compound came in with an activation at 0.01 µg/mL in the data set with rabbit isolated heart of 58%.
`COCC(=O)OC(CC(=O)OCC(C)C)C[N+](C)(C)C` (centres unmarked) [R = methoxyacetyl; R' = isobutyl, methoxyacetyl carnitine isobutyl ester]: the responders at 300 mg/kg in the data set with mice [1] stood at 60%. Also, the inhibition in vivo at 75 mg/kg in the data set with mice [2] turned out to be 85%. Also, in data set [3], the median lethal dose (LD50) came to 690 mg/kg. This compound displayed an activation at 0.01 µg/mL in the data set on rabbit isolated heart of 79%.
With `COCC(=O)OC(CC(=O)OC(C)C)C[N+](C)(C)C` (centres unmarked) [R = methoxyacetyl; R' = isopropyl], the responders at 50 mg/kg in the data set with mice [1] is 75%. Further, the inhibition in vivo at 50 mg/kg in the data set on mice [2] was determined as 80%. This compound showed a median lethal dose (LD50) in data set [3] of 800 mg/kg. In the data set on rabbit isolated heart, the activation at 0.01 µg/mL amounted to 55%.
On to `COCC(=O)OC(CC(=O)OC)C[N+](C)(C)C` (centres unmarked) [R = methoxyacetyl; R' = methyl], for which, in the data set on mice [1] (dose 450 mg kg^-1 i.p.), the responders at 450 mg/kg came out at 70%. In addition, in the data set on mice [2], the inhibition in vivo at 300 mg/kg is 75%. In addition, the LD50 in data set [3] came to 1200 mg/kg. Moreover, in the data set with rabbit isolated heart, the activation at 0.01 µg/mL turned out to be 72%.
As for `CCCOC(=O)CC(C[N+](C)(C)C)OC(=O)COC` (centres unmarked) [R = methoxyacetyl; R' = propyl], in the data set on mice [1], the responders at 50 mg/kg is 75%. Also, the inhibition in vivo at 50 mg/kg in the data set on mice [2] was 100%. For the same compound, the LD50 in data set [3] is 650 mg/kg. The activation at 0.01 µg/mL in the data set on rabbit isolated heart came to 78%.

What is called LD50 is the dose expected to kill half of the subjects tested. A high value points to a less toxic substance.
